The NIST ThermoML archive (doi:10.1021/je060271a)

Conditions: 303.14 K, Liquid, Vibrating tube method

CCCCCCC(=O)OCC(COC(=O)CCCCCC)(COC(=O)CCCCCC)COC(=O)CCCCCC [pentaerythritol tetraheptanoate]
Conditions	mass density [kg/m3]
8357.2 kPa	975.8
8381 kPa	975.9
8405.1 kPa	976
8433.4 kPa	976
8458.1 kPa	975.9
8483.1 kPa	976.1
8509.4 kPa	976
8533.9 kPa	976.1
8563.4 kPa	976
8587.9 kPa	976.2
8617.9 kPa	976
8643.4 kPa	976.1
8668.9 kPa	976.1
8700 kPa	976.2
8725.8 kPa	976.1
8751.7 kPa	976.1
8777.7 kPa	976.2
8810 kPa	976.2
8838.3 kPa	976.2
8865.8 kPa	976.3
8892.5 kPa	976.1
8925.3 kPa	976.3
8952.3 kPa	976.3
8979 kPa	976.3
9006.6 kPa	976.4
9039.6 kPa	976.3
9067.1 kPa	976.3
9100.6 kPa	976.4
9129 kPa	976.4
9157.8 kPa	976.5
9191.8 kPa	976.5
9221.4 kPa	976.5
9250.2 kPa	976.4
9279.1 kPa	976.4
9315 kPa	976.4
9344.1 kPa	976.6
9374.1 kPa	976.5
9409.9 kPa	976.5
9439.9 kPa	976.6
9476.4 kPa	976.6
9507.3 kPa	976.7
9537.9 kPa	976.6
9575 kPa	976.6
9606.3 kPa	976.8
9638.6 kPa	976.8
9670.4 kPa	976.7
9708.9 kPa	976.7
9741.1 kPa	976.9
9780.3 kPa	976.8
9813.2 kPa	976.9
9846 kPa	976.7
9879 kPa	976.9
9918.8 kPa	976.9
9952.1 kPa	976.9
9992 kPa	977
10026 kPa	976.8
10061 kPa	976.9
10103 kPa	977.1
10139 kPa	977
10174 kPa	977
10209 kPa	977.2
10252 kPa	977.1
10288 kPa	977
10325 kPa	977.2
10369 kPa	977.2
10405 kPa	977.1
10449 kPa	977.2
10486 kPa	977.2
10525 kPa	977.2
10571 kPa	977.3
10610 kPa	977.3
10649 kPa	977.3
10688 kPa	977.4
10736 kPa	977.4
10775 kPa	977.3
10823 kPa	977.4
10864 kPa	977.4
10906 kPa	977.6
10949 kPa	977.4
11001 kPa	977.6
11045 kPa	977.5
11086 kPa	977.5
11124 kPa	977.6
11150 kPa	977.6
11180 kPa	977.6
11206 kPa	977.7
11232 kPa	977.6
11290 kPa	977.6
11316 kPa	977.6
11343 kPa	977.8
11375 kPa	977.6
11402 kPa	977.7
11490 kPa	977.7
11519 kPa	977.9
11574 kPa	977.9
11609 kPa	978
11637 kPa	977.8
11668 kPa	977.9
11691 kPa	977.8
11715 kPa	977.9
11767 kPa	978.1
11791 kPa	978
11816 kPa	978
11847 kPa	978
11871 kPa	977.9
11896 kPa	978.1
11920 kPa	978.1
11950 kPa	978
11975 kPa	978.1
12000 kPa	978.2
12031 kPa	978.2
12057 kPa	978
12083 kPa	978.2
12110 kPa	978.1
12130 kPa	978.2
12151 kPa	978.2
12176 kPa	978.3
12197 kPa	978.3
12218 kPa	978.2
12240 kPa	978.3
12266 kPa	978.3
12285 kPa	978.3
12300 kPa	978.3
12304 kPa	978.3
12305 kPa	978.4
12331 kPa	978.3
12497 kPa	978.4
12525 kPa	978.5
12546 kPa	978.5
12565 kPa	978.5
12583 kPa	978.5
12606 kPa	978.4
12624 kPa	978.5
12646 kPa	978.5
12665 kPa	978.5
12684 kPa	978.4
12707 kPa	978.5
12725 kPa	978.6
12748 kPa	978.5
12768 kPa	978.7
12787 kPa	978.5
12806 kPa	978.5
12829 kPa	978.6
12849 kPa	978.6
12868 kPa	978.8
12887 kPa	978.6
12911 kPa	978.6
12930 kPa	978.7
12950 kPa	978.7
12974 kPa	978.7
12993 kPa	978.7
13017 kPa	978.8
13037 kPa	978.7
13057 kPa	978.8
13081 kPa	978.8
13101 kPa	978.8
13145 kPa	978.7
13166 kPa	978.8
13186 kPa	978.9
13211 kPa	978.9
13231 kPa	978.9
13252 kPa	978.8
13277 kPa	978.9
13298 kPa	978.9
13319 kPa	978.9
13340 kPa	978.9
13366 kPa	979
13387 kPa	978.9
13408 kPa	978.9
13429 kPa	979.1
13454 kPa	979
13476 kPa	979
13501 kPa	979
13523 kPa	979.1
13544 kPa	979.1
13592 kPa	979
13615 kPa	979
13637 kPa	979.1
13660 kPa	979.1
13686 kPa	979.2
13708 kPa	979.1
13730 kPa	979.1
13757 kPa	979.1
13779 kPa	979.3
13802 kPa	979.2
13828 kPa	979.3
13851 kPa	979.2
13949 kPa	979.3
13996 kPa	979.4
14023 kPa	979.3
14047 kPa	979.3
14070 kPa	979.5
14098 kPa	979.3
14121 kPa	979.4
14145 kPa	979.5
14174 kPa	979.4
14198 kPa	979.4
14247 kPa	979.4
14276 kPa	979.4
14300 kPa	979.4
14353 kPa	979.5
14378 kPa	979.5
14402 kPa	979.5
14432 kPa	979.5
14700 kPa	979.8
14725 kPa	979.9
14756 kPa	979.8
14782 kPa	979.7
14808 kPa	979.7
15038 kPa	979.8
15065 kPa	980.1
15092 kPa	980
15119 kPa	979.9
15152 kPa	980.1
15207 kPa	980
15241 kPa	980
15297 kPa	980
15386 kPa	980.1
15420 kPa	980.1
15448 kPa	980.2
15477 kPa	980.2
15539 kPa	980.1
15568 kPa	980.2
15602 kPa	980.2
